The results in this text go back to patent publication US20140329682A1, “METHOD OF CONTROLLING WEED IN A SUGAR CANE FIELD” (SUMITOMO CHEMICAL COMPANY, LIMITED, priority 2011, published 2014).

Assay type in all cases: in vivo
The test system of data set [1] is Amaranthus retroflexus. In words: Herbicidal activity, soil surface spray on day of planting (Example 1). To be noted: four weeks after treatment, scale 0 to 100. The procedure:
The stem cutting from which a bud had grown to about 1 cm was selected, and the length of the stem cutting was adjusted to be 3 cm, 15 cm or 25 cm. The stem cutting of 3 cm or 15 cm had only one node, and the stem cutting of 25 cm had two nodes. A soil was packed into a 32 cm×25 cm×11 cm plastic pot, and seeds of Amaranthus retroflexus were seeded thereon. […] On the date when the stem cutting was planted, and after planting of the stem cutting, a water-diluted liquid of a flumioxazin water dispersible granule (water dispersible granule containing 51% floumioxazin, trade name: Valor SX, manufactured by Valent USA Corporation) (100 ppm or 250 ppm) was uniformly sprayed on the soil surface with a sprayer at an amount described in Table 1. Thereafter, the pot for a test was placed in a greenhouse. Four weeks after treatment with flumioxazin, phytotoxicity on sugar cane and the herbicidal activity against Amaranthus retroflexus were determined.

The subject of data set [2] is sugar cane. In words: Phytotoxicity on sugar cane, spray from upper side of pot, sugar cane at 4 to 5 leaves (Example 2). The following applies: 125 g (active ingredient)/ha, one week after treatment, scale 0 to 100. The procedure:
(§1) A sugar cane, a foliage of which had grown to about 4 to 5 leaves, was selected, and the length of the stem cutting was adjusted to be 8 cm, 15 cm or 25 cm. The 8 cm or 15 cm stem cutting had one node, and the 25 cm stem cutting had two nodes. A soil was packed into a 32 cm×25 cm×11 cm plastic pot, and seeds of Amaranthus retroflexus were seeded thereon. […] On the date when the stem cutting was planted, and after planting of the stem cutting, a water-diluted liquid of a flumioxazin water dispersible granule (water dispersible granule containing 51% flumioxazin, trade name: Valor SX, manufactured by Valent USA Corporation) (250 ppm) was uniformly sprayed with a sprayer from an upper side of the pot at an amount described in Table 2. Thereafter, the pot for a test was placed in a greenhouse. One week after treatment with flumioxazin, phytotoxicity on sugar cane was determined and, four weeks after treatment with flumioxazin, the herbicidal activity against Amaranthus retroflexus was determined.

For data set [3], the system named is Amaranthus retroflexus. The data set is described as follows: Herbicidal activity, spray from upper side of pot, sugar cane at 4 to 5 leaves (Example 2). To be noted: 125 g (active ingredient)/ha, four weeks after treatment, scale 0 to 100. The procedure:
as §1

In data set [4] the test system is sugar cane. In words: Phytotoxicity on sugar cane, spray from upper side of pot, sugar cane at 4 to 5 leaves (Example 3). The following applies: 70 g (active ingredient)/ha, one week after treatment, scale 0 to 100. The procedure: as §1, with “8” for “8 cm, 15”, “8” for “8 cm or 15”, “saflufenacil (140” for “a flumioxazin water dispersible granule (water dispersible granule containing 51% flumioxazin, trade name: Valor SX, manufactured by Valent USA Corporation) (250”, “3. The water-diluted liquid of saflufenacil was prepared by dissolving a predetermined amount of saflufenacil in acetone containing 2% (w/v) Tween 20, and diluting this solution with water so that the acetone concentration became 10% by volume.” for “2.”, “saflufenacil,” for “flumioxazin,”

Consider `C#CCN1C(=O)COc2cc(F)c(N3C(=O)C4=C(CCCC4)C3=O)cc21` [Flumioxazin, flumioxazin], for which the Herbicidal activity with Amaranthus retroflexus [1] (50 g (active ingredient)/ha, stem cutting 3 cm) is recorded as 100; with Amaranthus retroflexus [1] (50 g (active ingredient)/ha, stem cutting 15 cm) it was 100; in the data set on Amaranthus retroflexus [1] (50 g (active ingredient)/ha, stem cutting 25 cm), 100; with Amaranthus retroflexus [1] (125 g (active ingredient)/ha, stem cutting 3 cm), 100; in the data set on Amaranthus retroflexus [1] (125 g (active ingredient)/ha, stem cutting 15 cm) it was 100; in the data set on Amaranthus retroflexus [1] (125 g (active ingredient)/ha, stem cutting 25 cm), 100. In addition, the Herbicidal activity in the data set with Amaranthus retroflexus [3] (stem cutting 8 cm), in the data set with Amaranthus retroflexus [3] (stem cutting 15 cm) and with Amaranthus retroflexus [3] (stem cutting 25 cm) was 100 throughout. Also, the “Phytotoxicity on sugar cane” value came to 10 in the data set with sugar cane [2] (stem cutting 8 cm (one node)), 10 in the data set on sugar cane [2] (stem cutting 15 cm (one node)) and 30 in the data set with sugar cane [2] (stem cutting 25 cm (two nodes)).

Regarding `CC(C)N(C)S(=O)(=O)NC(=O)c1cc(-n2c(=O)cc(C(F)(F)F)n(C)c2=O)c(F)cc1Cl` [Saflufenacil, saflufenacil], the “Phytotoxicity on sugar cane” value is 0 in the data set with sugar cane [4] (stem cutting 8 cm (one node)) and 15 in the data set on sugar cane [4] (stem cutting 25 cm (two nodes)).
